Assay [1] concerns PSMA-positive LNCaP cells. The assay can be described thus: Anti-DNP TAC ABT cell mediated killing of LNCaP cells (Incucyte). It is filed as cell-based, human. On the procedure:
Measuring T cell mediated killing of LNCaP cells: LNCaP prostate cancer cells, which are prostate specific membrane antigen (PSMA) positive, were engineered with Nuclight Red lentivirus to produce cells with nuclear localized red fluorescence to allow for ease of imaging in these experiments. […] The 3 components were co-cultured for 3 days with 4 images per well taken every 6 hours. Samples were run in triplicate. The number of LnCap cells per well at each time point was calculated using the Incucyte cell by cell analysis software and plotted. The area under the growth curve was used as a metric for tumor cell growth for this figure. The larger the area, the greater the tumor cell growth that occurred over the 3 days. The area under the curve for the LnCap control and each condition were used to calculate the % cytotoxicity.

The subject of assay [2] is PSMA-positive LNCaP cells. The assay can be described thus: Anti-DNP GDT cell mediated killing of LNCaP cells (Incucyte). The assay is classed as cell-based, human. As for the experimental part:
Measuring T cell mediated killing of LNCaP cells: LNCaP prostate cancer cells, which are prostate specific membrane antigen (PSMA) positive, were engineered with Nuclight Red lentivirus to produce cells with nuclear localized red fluorescence to allow for ease of imaging in these experiments. […] Samples were run in triplicate. The number of LNCaP cells per well at each time point was calculated using the Incucyte cell by cell analysis software and plotted. The area under the growth curve was used as a metric for tumor cell growth for this figure. The larger the area, the greater the tumor cell growth that occurred over the 3 days. The area under the curve for the LNCaP control and each condition were used to calculate the % cytotoxicity.

Assay [3] concerns 293-PSMA cells. Put plainly: CD69 and Nur77 expression of activated ABT cells with 293-PSMA cells. The assay is classed as cell-based, human. Conditions: Anti-DNP TAC-T cells; 10 nM and 1 nM. An excerpt:
Cells were stained for surface marker expression via Pacific Blue-conjugated mouse anti-human CD4, and AlexaFluor700-conjugated mouse anti-human CD8a, VioBright FITC-conjugated mouse anti-human NGFR, and anti-huCD69, fixed and permeabilized in Permiabilization concentrate diluted in permeabilization diluent, and stained intracellularly with PE-conjugated mouse anti-mouse Nur77.

Assay [4] has as its system HEK293-PSMA cells (PSMA expressing). The assay can be described thus: Cytokine production of engineered ABT cells following stimulation with HEK293-PSMA cells. The assay is classed as cell-based, human. As for the experimental part:
Measuring cytokine production following stimulation with HEK-293 cells: In a 96 well round bottom plate, 4E5 HEK293-PSMA cells (PSMA expressing) or HEK293-WT cells were incubated with 4E5 Anti-DNP TAC ABT cells, Anti-DNP DAP12 SAR ABT cells, or Anti-CD28 CAR ABT-cells. […] To stop the activation 20 mM EDTA was added and incubated for 15 minutes. Cells were stained for surface expression of CD4 and CD8, fixed and permeabilized in Cytofix/Cytoperm buffer, and stained with APC-conjugated mouse anti-human interferon-gamma, and FITC-conjugated mouse anti-human tumor necrosis factor-alpha. Cells were then run on the Beckman Coulter Cytoflex flow cytometer. The percent of cells positive for tumor necrosis factor-alpha and interferon-gamma for CD4 and CD8 T-cell populations were graphed separately showing the same overall trends.

Assay [5] relates to 293-PSMA cells. The assay can be described thus: Proliferation of adapter functionalized engineered ABT cells (CellTrace Violet). The assay is classed as cell-based, human. On the procedure: Each engineered T cell was also cultured in media alone as a control to compare to. All proliferation assay samples were incubated for 3 days at 37° C. and 5% CO2. Cells were then stained with Live/Dead Fixable Near-IR stain, PerCP-Cy5.5-conjugated mouse anti-human CD8a, Alexa Fluor 700-conjugated mouse anti-human CD4, VioBright FITC-conjugated mouse anti-human NGFR, and BV605-conjugated mouse anti-human CD3. Flow cytometry data were acquired.

Assay [6] concerns PSMA transduced HEK-293 cells. Put plainly: IFN-gamma / TNF-alpha production of Anti-DNP TAC ABT cells following stimulation with HEK-293 PSMA cells. It is filed as cell-based, human. Conditions: Anti-DNP TAC ABT cells prelabelled 6 hours; co-culture 4 hours. On the procedure:
The cells were co-cultured together for 4 hours at 37 degrees. Golgi plug was added prior to the co-incubation to prevent cytokine secretion. To stop the activation 20 mM EDTA was added and incubated for 15 minutes. The cells were spun down, media was aspirated, and the cells were stored in 200 μL of cRPMI overnight at 4 degrees. The next day, the cells were surface stained with anti-CD4 Pacific Blue, anti-CD8 Alexa Fluor 700, and anti-NGFR Viobright FITC. The cells were then fixed and permeabilized using a fix/perm buffer solution. The cells were then intracellularly stained with anti-CD3 BV605, anti-TNF-alpha PE-CY7, and anti-IFN-gamma APC. Cells were then run on the Beckman Coulter Cytoflex flow cytometer. The percent of cells positive for TNF-alpha and IFN-gamma, as well as cells positive for both were recorded in the table for the separate CD4 and CD8 T-cell populations.

Assay [7] relates to PSMA transduced HEK-293 cells. Put plainly: CD69 upregulation of DNP-TAC T cells following stimulation with HEK-293 PSMA cells. The assay is classed as cell-based, human. The following applies: DNP-TAC T cells pre labelled 6 hours; co-culture overnight. As for the experimental part: The cells were co-cultured together overnight at 37 degrees. To stop the activation, 20 mM EDTA was added and incubated for 15 minutes. The cells were spun down, media was aspirated, and the cells were stored in 200 μL of cRPMI at 4 degrees prior to staining. The cells were stained with Live-Dead Zombie Aqua, anti-CD3 BV605, anti-CD4 Pacific Blue, anti-CD8 Alexa Fluor 700, anti-NGFR Viobright FITC, and anti-CD69 BV650. Upon staining the cells were run on the Beckman Coulter Cytoflex flow cytometer and analyzed for CD69 expression.

The test system of assay [8] is Anti-DNP CD28 CAR GDT cells. Put plainly: Labeling time course of Anti-DNP CD28 CAR GDT cells with CIR/(N)CIR. Conditions: 10 nM, 100 nM, 1 uM, up to 3 hours. It is filed as binding, human. On the procedure: (§1) Engineered GDT-cells: PBMCs were seeded at 4E6 cells per well in a 24 well G-Rex plate in the presence of 1 ug/ml zoledronate and 1.5 ng/ml human IL2. Three days later, the cells were incubated overnight in a 24 well non tissue culture treated plate that was pre coated with retronectin and retrovirus supernatant containing viruses encoding either the Anti-DNP DAP12-SAR or the Anti-DNP CD28 CAR. The cells were then transferred back to the G-Rex plate and cultured for a further 11 days at which point, the cell product was collected, CD4/CD8 T cells were removed by magnetic selection and the purified engineered GDT cells were cryopreserved.
(§2) Flow cytometry: To assess the fraction of GDT cells which express the Anti-DNP synthetic antigen receptor, the cells were stained with the following antibodies/fluorophores: Myc biotin, streptavidin PE, vδ2 APC, TCR ab FITC, and CD3 BV605. The CD3 BV605, TCR ab FITC, and Vδ2 APC were used to specifically gate on Vδ2 GDT-cells. The anti-Myc biotin and streptavidin PE secondary were used to assess transduction level.
(§3) For labeling time-course studies, T-cells were incubated with varying concentrations (10 nM, 100 nM, 1 uM) of either DNP-Acyl Imidazole-Desthiobiotin or DNP-Desthiobiotin for different time periods up to 3 hours at room temperature in FACs buffer. […]

Assay [9] deals with Anti-DNP TAC T cells (anti-DNP scFv containing T-cells). The assay can be described thus: Labeling of Anti-DNP TAC ABT cells with CIR/(N)CIR, Streptavidin-PE flow cytometry. It is filed as binding, human. Conditions: 1 uM; for labeling time course (binding): 10 nM, 100 nM, up to 3 hours at room temperature, washed; for covalent binding and labeling of T cells (Streptavidin-PE): Anti-DNP TAC ABT cells, overnight at 4 degrees, washed 3 times. As for the experimental part:
(§4) Labeling with CIR/(N)CIR: ABT-cells were labelled overnight at 4 degrees in T-cell media with 1 uM of either DNP-Acyl Imidazole-Desthiobiotin or DNP-Desthiobiotin. DNP-Glycine competitor was also added to some conditions with at 200 uM as a competitor to assess labelling specificity. After the overnight incubation the samples were washed 3 times with FACs buffer to remove any non-covalently bound molecule and stained with Streptavidin-PE to assess labelling. The samples were also stained with near IR Live/Dead, anti-CD4 Pacific Blue, and anti-CD8 Alexa fluor 700 to allow for appropriate gating on live ABT-cells. The samples were assessed for Streptavidin-PE labelling via flow cytometry.
For labeling time-course studies, T-cells were incubated with varying concentrations (10 nM, 100 nM, 1 uM) of either DNP-Acyl Imidazole-Desthiobiotin or DNP-Desthiobiotin for different time periods up to 3 hours at room temperature in FACs buffer. The “0” hour time point was the final time point and accounts for the 5-minute period needed to spike in CIR/(N)CIR and spin down to stop labelling. After adding DNP-Acyl Imidazole-Desthiobiotin or DNP-Desthiobiotin to all time points the cells were washed 3 times and stained for flow cytometry analysis as described above.
as §4, with “either DNP-SuFEx-Desthiobiotin,” for “either”, “αβ T-cells.” for “ABT-cells.”
On the technique in general: In flow cytometry, cells or beads pass a laser one at a time.

For assay [10], the system named is Anti-DNP DAP12-SAR GDT cells. Put plainly: Labeling time course of Anti-DNP DAP12-SAR GDT cells with CIR/(N)CIR. The following applies: 10 nM, 100 nM, 1 uM, up to 3 hours. It is filed as binding, human. On the procedure: as §1, §2, §3

“Also recorded” adds a separate entry of the source.

For `O=C(O)CC[C@H](NC(=O)N[C@@H](CCCCNC(=O)NCCOCCOCCOCCOCCOCCOCCOCCOC(=O)NCCOCCNC(=O)CNc1ccc([N+](=O)[O-])cc1[N+](=O)[O-])C(=O)O)C(=O)O` [PSMA-(N)CIR, DNP-Glutamate-Urea-Lysine, reference compound], the “killing of LNCaP cells” value in assay [1] (E:T 8:1, 15.63 nM to 125 nM, 3 days) is given as “unable to direct T cell cytotoxicity; also recorded: did not promote killing of LNCaP cells at any concentration”; in assay [2] (Anti-DNP CD28 CAR GDT cells, 125 nM adapter) it was “could direct T cell cytotoxicity; also recorded: displayed tumor growth control”; in assay [2] (Anti-DNP DAP12-SAR GDT cells, 125 nM adapter), “unable to direct T cell cytotoxicity”; in assay [2] (Anti-DNP DAP12 SAR GDT cells, 250 nM (highest concentration)), “only weak killing”; in assay [2] (CD28 CAR GDT cells, 10 nM adapter), “unable to elicit any killing”. Further, the “concentration effective at engaging tumor killing” value in assay [1] (E:T 8:1, 3 days) is recorded as greater than 125 nM. The “killing of LNCaP cells at limiting concentration” value in assay [2] (Anti-DNP CD28 CAR GDT cells, 10 nM or 1 nM adapter) was “inability of the PSMA-(N)CIR to effectuate killing”. Also, the “tumor killing over a range of concentrations” value in assay [2] (Anti-DNP CD28 CAR GDT cells, 15 nM to 250 nM) is “diminished at lower levels”. For the same compound, the “adapter concentration at which tumor killing is observed” value in assay [2] (Anti-DNP DAP12 SAR GDT cells) is greater than 125 nM. The “killing of LNCaP cells after preincubation and wash” value in [2] (Anti-DNP DAP12 SAR and Anti-DNP CD28 CAR GDT cells, 1 uM adapter for 6 hours, washed, then co-culture) was “Only the T cells incubated with the PSMA-CIR retained the ability to kill”. Moreover, the “LNCaP killing over a range of concentrations” value in assay [2] (both Anti-DNP DAP12-SAR GDT cells and Anti-DNP CD28 CAR GDT cells, 15.6 nM-250 nM) was “killing diminished with lower concentrations”. Besides, the “T cell activation (Nur77, CD69)” value in the assay on 293-PSMA cells [3] was “only the PSMA-CIR could elicit T cell activation”. Moreover, the cytokine production result is “equivalent levels of cytokine production” in assay [4] (CD28-CAR T cells, highest concentration (100 nM)); “some cytokine production was observed with higher concentrations; also recorded: could be activated by both CIR and (N)CIR” in assay [4] (DAP12-SAR T cells, 1, 10, 100 nM); “no cytokine production” in assay [4] (TAC T cells, 1, 10, 100 nM). Moreover, the “T cell proliferation (percent divided)” value in the assay with 293-PSMA cells [5] (Anti-DNP12 SAR T cells, 1 nM or 10 nM) is recorded as “did not proliferate”; in the assay with 293-PSMA cells [5] (Anti-DNP DAP12 SAR T cells, 1 nM, 10 nM, or 100 nM), “little proliferation”; in the assay on 293-PSMA cells [5] (Anti-DNP DAP12 SAR T cells, 100 nM), “modest proliferation”; in the assay with 293-PSMA cells [5] (Anti-DNP TAC T cells, 1, 10, 100 nM, 3 days), “failed to proliferate above background; also recorded: little proliferation”. Besides, the “production of IFN-gamma and TNF-alpha” value in [6] is on record as “failed to demonstrated any evidence of activation”. Besides, the “T cell activation based on upregulation of CD69” value in [7] is recorded as “failed to demonstrated any evidence of activation”.
Take `CC1NC(=O)NC1CCCCCC(=O)NCCOCCOCCOCCOC(=O)n1cnc(CCNC(=O)CNc2ccc([N+](=O)[O-])cc2[N+](=O)[O-])c1` (stereo not shown) [DNP-Acyl Imidazole-Desthiobiotin]: the “labeling time course (binding)” value in [8] is given as “rapid covalent binding”. For the same compound, in assay [9], the “labeling time course (binding)” value is “rapid covalent binding”; the “time to maximal loading of DNP-TAC T cells” value is “several hours”; the “time until all Anti-DNP TAC T cells are loaded” value is no more than 30 min; the “covalent binding and labeling of T cells (Streptavidin-PE)” value was “can covalently bind and label”. For the same compound, the “labeling time course (binding)” value in assay [10] is reported as “rapid covalent binding”.
Regarding `CC1NC(=O)NC1CCCCCC(=O)NCCOCCOC(=O)NCCOCCNC(=O)CNc1ccc([N+](=O)[O-])cc1[N+](=O)[O-]` (stereo not shown) [DNP-Desthiobiotin, reference compound], the “labeling time course (binding)” value is on record as “minimal binding” in assay [8], “complete absence of binding” in assay [9] and “minimal binding” in assay [10]. The “covalent binding and labeling of T cells (Streptavidin-PE)” value in [9] is “cannot”.

These data come from patent US20260248852A1, “SYNTHETIC ANTIGEN RECEPTORS FOR COVALENT IMMUNE RECRUITERS AND METHODS AND USES THEREOF” (McMaster University, priority 2022, published 2026).
